# Test results as given in US9668959B2, “A3 adenosine receptor ligands for modulation of pigmentation” (ORADIN PHARMACEUTICAL LTD., priority 2009, dated 2017).
# Experiments:
# [1] = test system: human skin explants; assay: Ex vivo human skin organ culture, pigmentation by DOPA staining and light transmission; type: cell-based; details: for number of dark-stained DOPA positive melanocytes (D-P-M) compared to control: IB-MECA or MRS-1523 10 or 50 μM, hydroquinone 100 μM, FIGS. 8B and 8D; for melanin levels in skin explants: 10 or 50 μM, 12 days of exposure
# Experimental: Samples of human breast skin obtained during breast surgery were cut into pieces (0.5×0.5 cm) and cultured in DMEM medium (described above) in 6 well plates and incubated at 37° C. with 5% CO2 for 12 days. […] Treated skin samples were washed with PBS and the epidermal sheets were separated from the dermis and incubated in 0.1% L-3,4-DOPA in PBS for 4 h at 37° C. The epidermis sheets were then fixed with 4% formaldehyde solution, dehydrated by graded alcohol, cleared in xylene, and mounted on glass slides. DOPA positive melanocytes were visualized by light microscopy (×400 magnification). […] Light transmission of each area in the epidermis sheet was calculated and expressed as a mean of density of three images.
# [2] = test system: Akt; assay: Akt phosphorylation in serum starved B16 melanocytes (western blot); type: cell-based, murine; details: 10 μM, up to 3 h
# Experimental: (§1) B16 melanocytes grown in 6-well plates were serum starved overnight and then incubated in the presence of IB-MECA or MRS-1523 (10 μM), for different time intervals at 37° C. Cells were then rinsed with ice cold PBS and lysed by addition of RIPA buffer containing: proteinase inhibitor (PIC, 1:50 v/v), 0.1 mM phenylmethylsulphonylfluoride (PMSF) and 1 mM sodium orthovandate. Cells debris was removed by centrifugation. The protein level in the supernatants was determined using BSA as standard. Equal amounts of the sample (20 μg) were separated by SDS-PAGE using 10% polyacrylamide gels. The resolved proteins were then electroblotted onto nitrocellulose membrane. Membranes were blocked with 1% bovine serum albumin and incubated with anti-ERK-2 antibody (1:1000) or anti-phospho-ERK antibody (1:10000) for 1 h at room temperature, or with anti-Akt-1 antibody (1:1000) or with anti-phospho-Akt antibody […] at 4° C. for 24 h. Blots were then washed and incubated with horseradish peroxidase (conjugated secondary antibodies), for 1 hour at room temperature. The proteins were detected using ECL kit. For the detection of ERK phosphorylation after 72 hours of exposure to the ligands, non-starved cells were used (with 10% FCS).
# [3] = test system: ERK1/2; assay: ERK1/2 phosphorylation in B16 melanocytes (western blot); type: cell-based, murine; details: for ERK phosphorylation: 72 hours of exposure, non-starved cultures (10% FCS), FIG. 6B
# Experimental: as §1
# ERK phosphorylation in non-starved cultures (containing 10% FCS) after 72 hours of exposure to the ligands was examined.
# [4] = test system: Mitf; assay: Mitf expression and localization in B16 melanocytes (immunostaining, confocal microscopy); type: cell-based, murine; details: 10 μM; for Mitf expression: 3 h or 24 h, FIG. 7
# Experimental: B16 melanocytes were grown for 24 h on glass cover-slips coated with poly-L-lysine (500 ug/ml) in 6 wells plates in the presence of IB-MECA or MRS-1523 (10 μM), for 3 h or 24 h at 37° C. Cells were fixed in 4% formaldehyde in phosphate buffered saline (PBS) for 1 h at room temperature. […] To block non-specific interaction of the antibodies, cells were incubated with PBS (1% BSA, 0.1% Triton X-100). […] Cells were washed three times with PBS and mounted with Fluoromount (Sigma). Cells were visualized by confocal microscopy (excitation 553 and emission at 568, Lieca).
# [5] = test system: human breast skin; assay: Ex vivo human skin organ culture, pigmentation by Fontana-Masson stain; type: cell-based; details: for melanin accumulation and/or deposition in keratinocytes (histological appearance): FIG. 9
# Experimental: Formalin fixed paraffin embedded skin sections from samples of human breast skin treated with IB-MECA, MRS-1523 or hydroquinone as described for FIG. 8, were evaluated for Fontana-Masson staining and visualized by light microscopy (×400). IBMX (100 μM) was used as a positive control for induction of melanogenesis. K, keratinocytes; M, melanocytes.
# Samples of human breast skin obtained during breast surgery were cut into pieces (0.5×0.5 cm) and cultured in DMEM medium (described above) in 6 well plates and incubated at 37° C. with 5% CO2 for 12 days. Skin samples were topically treated with 10 or 50 μM of various A3 adenosine receptor ligands or 100 μM hydroquinone three times during the incubation period and the medium was exchanged every 3 days.
# [6] = test system: B16 melanocytes; assay: Microscopy of melanosome level and distribution in treated B16 melanocytes; type: cell-based, murine; details: 10 μM, 24 h, FIG. 3A
# [7] = test system: B16 melanocytes; assay: Melanin assay (melanin in cell lysates and media) in B16 melanocytes; type: cell-based, murine; details: for melanin secretion to the media, visual (photograph): FIG. 3E; for detectable levels of melanin secreted to the medium (extracellular): after 24 hours of exposure; for increase of the total melanin level: FIG. 1B
# Experimental: B16 F1 melanoma cells were grown adherently and maintained in DMEM (without phenol red), containing 10% fetal calf serum, 1% antibiotics (penicillin, streptomycin and nystatin, each at 100 U/ml), and 2 mM L-glutamine. Cells were cultured at 37° C. in 5% CO2, and passaged two to three times weekly at a ratio of 1:10.
# Melanin content was determined as reported by Sato et al., (2008), Biol. Pharm. Bull., 31(1):33-7, with modifications. Cells (6.5×10^4) were seeded into 6 well plates with 5 ml of DMEM medium (described above) and incubated at 37° C. with 5% CO2 for 3-4 hours to enable cell adherence. Cells were then exposed to test chemicals (IB-MECA, MRS-1523 or kojic acid) at the desired concentration and incubation periods. After the treatment, the supernatants were collected to determine the amount of melanin secreted to the medium. Cells were washed with PBS, detached by incubation with trypsin/EDTA and then DMEM with serum (0.75 ml) was added to each well. Cells were collected by centrifugation and lysed by exposure to 2N NaOH (1 ml) at 60° C. for 1 h and the melanin content was determined by measuring the absorption at 400 nm. The amount of protein in each lysate was determined using bovine serum albumin is used as the standard. The amount of melanin in each sample was calculated using synthetic melanin as standard. The results were expressed as the melanin content per mg protein (μg/mg protein). To compare among treatments, the results were expressed as percent relative to control.
# [8] = test system: A3 adenosine receptor; details: cited from earlier work
# [9] = 10 μM, serum starved cells, FIG. 6A
# [10] = highest IB-MECA concentration, 5 days, FIG. 1A
structure (smiles),measurement,setting,value
"CCCOC(=O)c1c(-c2ccccc2)nc(CC)c(C(=O)SCC)c1CCC [MRS-1523, 3-propyl-6-ethyl-5[(ethylthio)carbonyl]-2-phenyl-4-propyl-3-pyridine carboxylate]",pigmentation decreased by (light transmission through epidermal sheets after DOPA staining),"[1]; 10 μM, 12 days",80+21.8%
same,pigmentation decreased by (light transmission through epidermal sheets after DOPA staining),"[1]; 50 μM, 12 days",49.5 ± 6.9%
same,number of dark-stained DOPA positive melanocytes (D-P-M) compared to control,[1]; 12 days,decreased number
same,melanin levels in skin explants,[1]; topical,decreased melanin levels
same,Akt phosphorylation on continued exposure,[2],downregulation of P-Akt
same,time to induced phosphorylation of ERK 1,[3]; [9],≤ 30 min
same,time to induced phosphorylation of ERK 2,[3]; [9],≤ 10 min
same,ERK phosphorylation,[3],stimulated phosphorylation of both ERK1 and ERK 2
same,Mitf expression,[4],very low Mitf expression
same,melanin accumulation and/or deposition in keratinocytes (histological appearance),[5],lesser extent of melanin accumulation and/or deposition in the keratinocytes
same,pigmentation of Fontana-Masson stained skin sections compared to control,[5]; concentration not given,decreased pigmentation
same,melanosome level and distribution in the cytosol,[6],more melansomes were observed in the cell periphery and in the dendritic sites of the control and IB-MECA treated melanocytes as compared to MRS-1523 treated cells
same,melanin level in the cells decreased by,"[7]; 1 μM, 5 days",27±5.7%
same,total melanin decreased by,"[7]; 1 μM, 5 days",37±5.7%
same,melanin level in the cells decreased by,"[7]; 5 μM, 5 days",24±1.7%
same,total melanin decreased by,"[7]; 5 μM, 5 days",24±1.9%
same,decrease in the overall melanin level,"[7]; 10 μM, 5 days",88±1.3%
same,"melanin secretion to the media, visual (photograph)","[7]; 10 μM, 5 days",visually observable decrease in melanin
same,detectable levels of melanin secreted to the medium (extracellular),[7]; 10 μM,not observed
same,total melanin level decreased by,"[7]; 10 μM, four days (96 h)",67±4.4%
same,melanin level within the cells decreased by,"[7]; 40 μM, 5 days, FIG. 2A",11±2.3%
same,melanin secretion blocked by,"[7]; 40 μM, 5 days, FIG. 2A",88±1.7%
same,decrease in total melanin,"[7]; 40 μM, 5 days, FIG. 2B",67±1.07%
same,decrease of the intracellular melanin,"[7]; ""this treatment"" (concentration unclear), 5 days",48%±4.9
same,secreted and total melanin levels compared to control,"[7]; all concentrations within 1-40 μM, 5 days",lower than that of the control
Oc1ccc(O)cc1 [hydroquinone],number of dark-stained DOPA positive melanocytes (D-P-M) compared to control,[1]; 12 days,increased number
same,skin pigmentation,"[1]; topical, 100 μM, 12 days",increased skin pigmentation
"CNC(=O)[C@H]1O[C@@H](n2cnc3c(NCc4cccc(I)c4)ncnc32)[C@H](O)[C@@H]1O [IB-MECA, N^6-(3-iodobenzyl) adenosine-5′-(N-methyluronamide)]",selectivity for the A3 adenosine receptor versus either the A1 or A2A receptors,[8],50 fold
same,pigmentation increased by (light transmission through epidermal sheets after DOPA staining),"[1]; 10 μM, 12 days",27+3.9%
same,pigmentation increased by (light transmission through epidermal sheets after DOPA staining),"[1]; 50 μM, 12 days",36+2.6%
same,number of dark-stained DOPA positive melanocytes (D-P-M) compared to control,[1]; 12 days,increased number
same,melanin levels in skin explants,[1]; topical,increased melanin levels
same,Akt phosphorylation on continued exposure,[2],increased phosphorylation of Akt
same,level of ERK phosphorylation,"[3]; 10 μM, 10 min to 3 h, serum starved cells, FIG. 6A",did not increase the level of ERK phosphorylation
same,ERK phosphorylation,[3],did not appear to affect ERK phosphorylation
same,time to translocation of Mitf protein to the nucleus,[4],≤ 3 h
same,Mitf expression,[4],highly expressed
same,Mitf expression in cytoplasm and nucleus,[4]; after 24 h of exposure,remained high
same,pigmentation of Fontana-Masson stained skin sections compared to control,[5]; 10 μM,increased pigmentation
same,melanin accumulation and/or deposition in keratinocytes (histological appearance),[5],elevation in melanin accumulation and/or deposition in the adjacent keratinocytes
same,melanosome level and distribution in the cytosol,[6],melanosomes were accumulated in the perinuclear areas
same,increase of the total melanin level,"[7]; 5 μM, 5 days",220±19.4%
same,level of total melanin,"[7]; 10 μM, 72 hours of exposure",non-significantly increased
same,increase in the total melanin level,"[7]; 10 μM, 120 h",537±31.9%
same,increase of the total melanin level,"[7]; 10 μM, 5 days",369±1%
same,"melanin secretion to the media, visual (photograph)","[7]; 10 μM, 5 days",visually observable increase in melanin
same,detectable levels of melanin secreted to the medium (extracellular),[7]; 10 μM,not observed
same,total melanin level increased by,"[7]; 10 μM, four days (96 h)",198±12.1%
same,increase of the total melanin level,"[7]; 40 μM, 5 days",441±53.8%
same,intracellular melanin level increased by,[7]; [10],143±4.1%
same,secretion of melanin to the media increased by,[7]; [10],554±23.8%
"CC(C)Cn1c(=O)n(C)c(=O)c2[nH]cnc21 [IBMX, 3-isobutyl-1-methyl-xanthine]",pigmentation of Fontana-Masson stained skin sections compared to control,"[5]; 100 μM, positive control",increased pigmentation
O=c1cc(CO)occ1O [kojic acid],effect on melanin synthesis and secretion,"[7]; 5 days, FIG. 4A",both melanin synthesis (overall melanin levels) and secretion (melanin level in the medium) were affected
same,inhibition in the total melanin level,"[7]; 5 days, concentration not given, FIG. 4B",51%±2.4
